Experimental data published in patent US20240417764A1, “METHODS FOR THE PRODUCTION OF TRYPTOPHANS, TRYPTAMINES, INTERMEDIATES, SIDE PRODUCTS AND DERIVATIVES” (priority 2021, published 2024).

Legend:
[1] = target: T1, endogenous Escherichia coli tryptophan synthase beta subunit (TrpB) (Escherichia coli, UniProt P0A879); assay: TrpB substrate flexibility, in vivo conversion of substituted indoles to tryptophans; type: cell-based; conditions: sampled at 24 h
T1 construct: Yield for production of tryptophan derivatives by native E. coli TrpB from indole derivatives; endogenous in cells; host or cells: E. coli BL21 Star (DE3) carrying pETM6-SDM2x (empty vector for the TrpB-alone study)
Text: (§1) Four previously constructed BL21 Star™ (DE3) cell lines with pETM6-SDM2x plasmid backbones were used, each with endogenous Escherichia coli (E. coli) tryptophan synthase beta subunit (TrpB); (1) no gene insert (empty vector), (2) PsiD gene insert with T7 promoter, (3) PsiD-PsiK gene insert with C4 promoter in operon configuration (pNor, Norbaeocystin Production Strain) (Adams et al., 2022), and (4) PsiD-PsiK-PsiM gene insert with H10 promoter in operon configuration (pSilo16, Psilocybin Production Strain; See WO 2021/086513) (Adams et al., 2019). For the PsiD transcriptional optimization study, each of the nine previously described library members were used, in lieu of the strains above. Overnight cultures were grown in Andrew's Magic Media (AMM) without MOPS, appropriate antibiotics for plasmid retention, and were inoculated from freezer stocks. Experimental cultures were incubated in covered 48-well plates at 37° C. in a shaking incubator. AMM media consistent with above was inoculated at 2% final volume of respective overnight culture and 2 mL aliquoted to each well. Indole derivatives were added to each well, except negative control, at 100 mg/L using 5 uL from a 40 mg/mL stock in EtOH. 4-Nitroindole at 13.3 mg/mL in EtOH was added using 15 uL due to solubility limitations. Cultures were induced at 2 hours using 1 mM ITPG. Cultures were sampled at 24 hours and subjected to LC-MS analysis as described below. Cultures with serine added were identical to those without, except for adding 4.5 g/L of serine prior to inoculation.
Without commercially available standards for many of these compounds absolute quantification of enzymatic products is not possible. Peak areas from one substituted indole could not be compared directly to peak areas from another substituted indole due to significant differences in extinction coefficients. Relative quantification was performed by comparing product UV 280 nm peak areas from HPLC analysis (mAU*min) to that of the corresponding substituted indole. TrpB proficiencies with and without serine were calculated by dividing the tryptophan product peak areas by the total peak areas from the indole and tryptophan peaks. Tryptophan and indole peak areas were determined from duplicate samples with indole and subtraction of any time-correlated peak areas found in the samples without indole addition. Any other indole related peak areas found in indole samples were included in the denominator. Indole related peaks were defined as peaks found in indole samples, but absent from samples without indole addition. Similar calculations were performed for PsiD proficiencies where tryptamine peak areas were divided by the total area of associated tryptamine and tryptophan peaks. Indole utilization was also calculated for PsiD proficiencies where the remaining indole peak areas were divided by the initial peak areas.

[2] = tested on: E. coli BL21 Star (DE3); assay: Culture growth of E. coli production host supplemented with indole derivatives; type: cell-based, Escherichia coli; conditions: indole derivative 100 mg/L in 48-well culture, 37 C, compared visually with other indoles
Text: as §1
Other indoles may have slowed cell growth, but the differences were not easily distinguishable visually as OD600 reading were not taken for every sample.

[3] = target: T2, P. cubensis PsiD (Psilocybe cubensis, UniProt P0DPA6, L22F); assay: PsiD substrate flexibility, in vivo decarboxylation of substituted tryptophans to tryptamines; type: cell-based, Escherichia coli; conditions: in vivo in E. coli expressing PsiD, HPLC/LCMS detection
T2 construct: expressed in transfected cells; host or cells: E. coli BL21 Star (DE3); PsiD insert with the T7 promoter, or promoter/backbone library members, or pNor and pSilo16
Text: as §1, with “Indole derivatives were added to each well, except negative control, at 100 mg/L using 5 uL from a 40 mg/mL stock in EtOH. 4-Nitroindole at 13.3 mg/mL in EtOH was added using 15 uL due to solubility limitations. Cultures were induced at 2 hours using 1 mM ITPG. Cultures were sampled at 24 hours and subjected to LC-MS analysis as described below. Cultures with serine added were identical to those without, except for adding 4.5 g/L of serine prior to inoculation.” left out
Without commercially available standards for many of these compounds absolute quantification of enzymatic products is not possible. […] Relative quantification was performed by comparing product UV 280 nm peak areas from HPLC analysis (mAU*min) to that of the corresponding substituted indole. TrpB proficiencies with and without serine were calculated by dividing the tryptophan product peak areas by the total peak areas from the indole and tryptophan peaks. Tryptophan and indole peak areas were determined from duplicate samples with indole and subtraction of any time-correlated peak areas found in the samples without indole addition. […] Indole utilization was also calculated for PsiD proficiencies where the remaining indole peak areas were divided by the initial peak areas.
PsiD substrate flexibility was evaluated jointly in vivo with TrpB, such that if indoles were not sufficiently processed by TrpB, then PsiD activity could not be evaluated. […]

[4] = with supplemental serine 4.5 g/L
[5] = without supplemental serine, indole 100 mg/L, tryptophan peak area / total indole-related peak areas (UV 280 nm)

T1 sequence (P0A877 whole entry): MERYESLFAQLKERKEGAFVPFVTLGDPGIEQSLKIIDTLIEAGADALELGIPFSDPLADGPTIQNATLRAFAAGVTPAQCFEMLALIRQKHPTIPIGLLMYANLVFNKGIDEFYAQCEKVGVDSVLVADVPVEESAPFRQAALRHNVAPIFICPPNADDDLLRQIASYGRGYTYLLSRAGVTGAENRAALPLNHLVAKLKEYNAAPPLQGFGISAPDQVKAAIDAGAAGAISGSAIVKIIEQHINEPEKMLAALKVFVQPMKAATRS
T1 sequence (P0A879 2-397): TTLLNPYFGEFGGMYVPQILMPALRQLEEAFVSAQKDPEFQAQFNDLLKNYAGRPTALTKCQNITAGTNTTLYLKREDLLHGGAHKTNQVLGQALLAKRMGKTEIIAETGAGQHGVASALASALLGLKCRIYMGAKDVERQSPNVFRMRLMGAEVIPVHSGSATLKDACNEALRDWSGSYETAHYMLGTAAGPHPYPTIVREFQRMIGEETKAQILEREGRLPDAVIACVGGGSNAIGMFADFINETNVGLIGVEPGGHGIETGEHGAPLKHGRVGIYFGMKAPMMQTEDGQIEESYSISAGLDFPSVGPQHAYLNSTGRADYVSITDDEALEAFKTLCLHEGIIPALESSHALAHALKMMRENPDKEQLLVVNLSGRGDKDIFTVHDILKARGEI
T2 sequence (P0DPA6 whole entry, stated change not applied): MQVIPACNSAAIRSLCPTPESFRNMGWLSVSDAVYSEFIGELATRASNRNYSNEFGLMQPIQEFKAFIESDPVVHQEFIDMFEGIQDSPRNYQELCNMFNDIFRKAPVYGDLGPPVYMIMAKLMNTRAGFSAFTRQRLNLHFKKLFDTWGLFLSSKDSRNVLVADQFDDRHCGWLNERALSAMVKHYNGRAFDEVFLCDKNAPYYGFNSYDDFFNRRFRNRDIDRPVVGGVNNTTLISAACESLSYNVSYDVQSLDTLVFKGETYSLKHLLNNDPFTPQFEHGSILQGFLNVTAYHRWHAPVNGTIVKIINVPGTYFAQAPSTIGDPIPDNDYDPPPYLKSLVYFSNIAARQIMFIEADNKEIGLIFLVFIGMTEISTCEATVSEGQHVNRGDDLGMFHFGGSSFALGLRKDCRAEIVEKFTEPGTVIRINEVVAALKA

Compound	TrpB proficiency [1, 4] [%]	culture growth retardation (toxicity effects of the indole derivatives) [2]	TrpB proficiency (class) [1, 5]	further results
Oc1cccc2cc[nH]c12 [7-hydroxyindole]	100			
O=[N+]([O-])c1ccc2cc[nH]c2c1 [6-nitroindole]		significant culture growth retardation		
COc1ccc2[nH]ccc2c1 [5-methoxyindole]			moderate (35-65%) or low proficiency (5-35%)	
COc1cccc2[nH]ccc12 [4-methoxyindole]			moderate (35-65%) or low proficiency (5-35%)	
Brc1ccc2cc[nH]c2c1 [6-bromoindole]		significant culture growth retardation	moderate (35-65%) or low proficiency (5-35%)	
Cc1[nH]c2ccccc2c1C[C@H](N)C(=O)O [2-methyltryptophan]				PsiD conversion to tryptamine product [3]: neither tryptamine product was observed
Clc1cc2ccccc2[nH]1 [2-chloroindole]			moderate (35-65%) or low proficiency (5-35%)	
N#Cc1cccc2cc[nH]c12 [7-cyanoindole]			moderate (35-65%) or low proficiency (5-35%)	
Brc1cccc2[nH]ccc12 [4-bromoindole]		significant culture growth retardation	moderate (35-65%) or low proficiency (5-35%)	
COc1ccc2cc[nH]c2c1 [6-methoxyindole]			moderate (35-65%) or low proficiency (5-35%)	
Clc1ccc2[nH]ccc2c1 [5-chloroindole]		significant culture growth retardation		
Brc1ccc2[nH]ccc2c1 [5-bromoindole]		significant culture growth retardation		
Clc1ccc2cc[nH]c2c1 [6-chloroindole]		significant culture growth retardation	moderate (35-65%) or low proficiency (5-35%)	
Ic1cccc2cc[nH]c12 [7-iodoindole]	100			
Oc1ccc2cc[nH]c2c1 [6-hydroxyindole]	3			
Nc1cccc2[nH]ccc12 [4-aminoindole]	23	significant culture growth retardation	moderate (35-65%) or low proficiency (5-35%)	
N[C@@H](Cc1c(Cl)[nH]c2ccccc12)C(=O)O [2-chlorotryptophan]				PsiD conversion to tryptamine product [3]: neither tryptamine product was observed

Compound	TrpB proficiency [1, 4] [%]	culture growth retardation (toxicity effects of the indole derivatives) [2]	TrpB proficiency (class) [1, 5]	further results
Fc1cccc2cc[nH]c12 [7-fluoroindole]	95	significant culture growth retardation	moderate (35-65%) or low proficiency (5-35%)	TrpB proficiency [1, 5]: 45%
Brc1cccc2cc[nH]c12 [7-bromoindole]	100			
Ic1ccc2[nH]ccc2c1 [5-iodoindole]		significant culture growth retardation		
Cc1cccc2cc[nH]c12 [7-methylindole]	100			
COc1cccc2cc[nH]c12 [7-methoxyindole]	100			
Fc1ccc2cc[nH]c2c1 [6-fluoroindole]		significant culture growth retardation	moderate (35-65%) or low proficiency (5-35%)	
Ic1cccc2[nH]ccc12 [4-iodoindole]		significant culture growth retardation	moderate (35-65%) or low proficiency (5-35%)	
Oc1ccc2[nH]ccc2c1 [5-hydroxyindole]			moderate (35-65%) or low proficiency (5-35%)	
Clc1cccc2[nH]ccc12 [4-chloroindole]		significant culture growth retardation	moderate (35-65%) or low proficiency (5-35%)	
Cc1cc2ccccc2[nH]1 [2-methylindole]	100			PsiD conversion to tryptamine product [3]: no tryptamine product could be detected
Oc1cccc2[nH]ccc12 [4-hydroxyindole]	100			
Fc1ccc2[nH]ccc2c1 [5-fluoroindole]		significant culture growth retardation	moderate (35-65%) or low proficiency (5-35%)	
Nc1cccc2cc[nH]c12 [7-aminoindole]			moderate (35-65%) or low proficiency (5-35%)	
Ic1ccc2cc[nH]c2c1 [6-iodoindole]		significant culture growth retardation	moderate (35-65%) or low proficiency (5-35%)	
Fc1cccc2[nH]ccc12 [4-fluoroindole]	100	significant culture growth retardation	moderate (35-65%) or low proficiency (5-35%)	TrpB proficiency [1, 5]: 27%
Cc1cccc2[nH]ccc12 [4-methylindole]	93	significant culture growth retardation	moderate (35-65%) or low proficiency (5-35%)	TrpB proficiency [1, 5]: 22%
Cc1ccc2[nH]ccc2c1 [5-methylindole]			moderate (35-65%) or low proficiency (5-35%)	
